Assays:
Splenocytes = assay: IL-2 bioactivity study (splenocyte stimulation, IFN-γ ELISA); assay type: cell-based, B6 mouse; conditions: IFN-γ production correlated with IL-2 concentration
Protocol: Splenocytes were isolated from a B6 mouse and 1×10^6 cells were added in 500 μL T cell media to each well of a 24 well plate previously coated with 10 μg/mL anti-CD3 (coated overnight in 1×PBS at 4° C.) and 5 μg/mL soluble anti-CD28 (BD Biosciences). The media from release studies was filtered through a 0.22-μm syringe filter (Whatman) and 500 μL was added to the wells. Additionally all wells contained 5 μg/mL, soluble anti-CD28 (BD Biosciences). […] Cells were incubated at 37° C. and cellular stimulation was assessed after 72 hours using an IFN-γ ELISA (BD Biosciences).

B16 melanomas = assay: In vivo subcutaneous tumor studies, intratumoral nanolipogel therapy; parameters: species or system B6 albino mice
Protocol: B16-F10 cells (ATCC) were cultured in DMEM (Gibco) and suspended at 2×10^6 cells/mL in 1×PBS (kept on ice) directly prior to injection. For subcutaneous tumor studies, female 6-8 week-old B6 albino mice were sedated with AErrane (isofluorane; Baxter) and the right hind flank was shaved prior to a subcutaneous injection of 50 μL of the cellular suspension. Tumors were monitored and treatment began when the average tumor area reached approximately 5.5 mm^2 (8-10 days after B16 injection; mice were rearranged to normalize tumor sizes across groups).
Observers were blinded for tumor area and survival studies. […] Five mice per group were euthanized at different timepoints and tumors were extracted and weighed.

B16 lung metastases = assay: Metastatic B16 lung tumor study, intravenous nanolipogel therapy; assay type: in vivo, B6 mice; conditions: two weeks after initial treatment
Protocol: Metastatic B16 melanomas were established in female 6-8 week old B6 mice by intravenous (tail vein) administration of 50 μL of B16 cellular suspension as described by Gorelik, et al. Nat Med 7, 1118-1122 (2001). […] After sacrifice, the chest cavity was exposed and the lungs perfused by making a small incision in the right atrium and injecting 10 mL of cold PBS into the right ventricle. Lung metastates were counted by blinded observers who recorded dark circular masses ranging from 0.1-3 mm as unique tumors.

[1] = cited from earlier work

Cc1cccc(-c2[nH]c(C(C)(C)C)nc2-c2ccc3c(c2)OCO3)n1.Cl [SB, 2-(5-benzo[1,3]dioxol-5-yl-2-tert-butyl-3H-imidazol-4-yl)-6-methylpyridine hydrochloride]
bioactivity after lipogel incorporation (Splenocytes): unaffected | survival (B16 melanomas; intratumoral): did not improve survival | tumor growth (tumor area versus time) (B16 melanomas; weekly intratumoral administration): failed to delay tumor growth | number of lung tumors (B16 lung metastases): failed to reduce the number of lung tumors | Log P [1]: 4.33

Reference: patent US11173119B2 (YALE UNIVERSITY, priority 2012, dated 2021)
